Columns and labels:
Experiment in all cases: relative viability (nuclei count vs DMSO), 5 days (fraction); higher = more cells survive
[1] = compound: COc1cc(-c2nn([C@H]3CC[C@H](N4CCN(C(C)=O)CC4)CC3)c3ncnc(N)c23)ccc1NC(=O)c1cc2ccccc2n1C + Nc1ncn([C@H]2C[C@H](O)[C@@H](CO)O2)c(=O)n1 [Decitabine] (partner 2 µM)
In short: (§1)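 Relative viability equals treated-well nuclei counts divided by vehicle-well nuclei counts. Counts came from 4× images of lung cancer cell lines grown in 1536-well plates for 5 days after pin-tool dosing on the day after seeding. Dosing used one drug alone or a fixed anchor-drug dose plus five library-drug doses (not always all listed) in √10 steps, and values are medians of duplicate plates.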

Midostaurin + Decitabine = compound: CO[C@@H]1[C@H](N(C)C(=O)c2ccccc2)C[C@H]2O[C@]1(C)n1c3ccccc3c3c4c(c5c6ccccc6n2c5c31)C(=O)NC4 [Midostaurin] + Nc1ncn([C@H]2C[C@H](O)[C@@H](CO)O2)c(=O)n1 [Decitabine] (partner 2 µM)
In short: as §1

[2] = compound: COc1cc(-c2nn([C@H]3CC[C@H](N4CCN(C(C)=O)CC4)CC3)c3ncnc(N)c23)ccc1NC(=O)c1cc2ccccc2n1C + CC1(C)CCC(c2ccc(Cl)cc2)=C(CN2CCN(c3ccc(C(=O)NS(=O)(=O)c4ccc(N[C@H](CCN5CCOCC5)CSc5ccccc5)c(S(=O)(=O)C(F)(F)F)c4)cc3)CC2)C1 [Navitoclax] (partner 0.5 µM)
In short: as §1

Midostaurin + Foretinib = compound: CO[C@@H]1[C@H](N(C)C(=O)c2ccccc2)C[C@H]2O[C@]1(C)n1c3ccccc3c3c4c(c5c6ccccc6n2c5c31)C(=O)NC4 [Midostaurin] + COc1cc2c(Oc3ccc(NC(=O)C4(C(=O)Nc5ccc(F)cc5)CC4)cc3F)ccnc2cc1OCCCN1CCOCC1 [Foretinib] (partner 0.25 µM)
In short: as §1

Midostaurin + Lapatinib = compound: CO[C@@H]1[C@H](N(C)C(=O)c2ccccc2)C[C@H]2O[C@]1(C)n1c3ccccc3c3c4c(c5c6ccccc6n2c5c31)C(=O)NC4 [Midostaurin] + CS(=O)(=O)CCNCc1ccc(-c2ccc3ncnc(Nc4ccc(OCc5cccc(F)c5)c(Cl)c4)c3c2)o1 [Lapatinib] (partner 2 µM)
In short: as §1

Cell Line	relative viability ([1]; first compound 0.0128 µM)	relative viability ([1]; first compound 0.04048 µM)	relative viability ([1]; first compound 0.128 µM)	relative viability ([1]; first compound 1.28 µM)	relative viability (Midostaurin + Decitabine; first compound 0.01 µM)	relative viability (Midostaurin + Decitabine; first compound 0.03162 µM)	relative viability (Midostaurin + Decitabine; first compound 0.1 µM)	relative viability (Midostaurin + Decitabine; first compound 0.3162 µM)	relative viability ([2]; first compound 0.0128 µM)	relative viability ([2]; first compound 0.04048 µM)	relative viability ([2]; first compound 0.128 µM)	relative viability ([2]; first compound 1.28 µM)	relative viability (Midostaurin + Foretinib; first compound 0.01 µM)	relative viability (Midostaurin + Foretinib; first compound 0.03162 µM)	relative viability (Midostaurin + Foretinib; first compound 0.1 µM)	relative viability (Midostaurin + Foretinib; first compound 0.3162 µM)	relative viability (Midostaurin + Lapatinib; first compound 0.01 µM)	relative viability (Midostaurin + Lapatinib; first compound 0.03162 µM)	relative viability (Midostaurin + Lapatinib; first compound 0.1 µM)	relative viability (Midostaurin + Lapatinib; first compound 0.3162 µM)
201T	0.929	0.919	0.809	0.615	0.878	0.91	0.83	0.867	1.27	1.3	1.22	1.03	1.15	0.988	1.14	1.17	1.06	0.982	1.07	1.08
A549	0.237	0.252	0.228	0.245	0.255	0.221	0.216	0.222	1.22	1.22	1.17	1.15	0.871	0.781	0.939	0.99	0.954	0.854	1	0.212
A-427	0.529	0.589	0.571	0.666	0.574	0.6	0.529	0.547	1.06	0.763	1.04	0.795	1.06	1.08	0.903	1.03	0.95	0.993	0.835	1.1
ABC-1	1.19	1.03	0.835	0.998	1.02	1.14	0.942	1.26	–	–	–	–	1.03	1.14	0.828	1.11	1.05	1.29	1	1.17
BEN	0.571	0.733	0.708	0.582	0.732	0.712	0.685	0.806	0.062	0.261	0.0628	0.0568	0.719	0.803	0.966	0.667	0.718	0.719	0.777	0.815
CAL-12T	–	–	–	–	–	–	–	–	1.2	1.41	1.27	1.44	1.17	0.959	0.733	1.11	0.726	0.447	0.603	0.498
COR-L23	0.509	0.451	0.446	0.499	0.381	0.441	0.448	0.434	0.972	1.29	0.9	0.982	1.03	0.954	0.9	0.892	0.922	1.1	0.835	0.855
COR-L 105	0.645	0.724	0.653	0.559	0.673	0.633	0.622	0.605	0.728	0.813	0.78	0.456	1.04	1.04	0.909	1.09	0.364	0.395	0.357	0.344
Calu-6	–	–	–	–	–	–	–	–	0.881	0.983	0.817	0.722	0.879	0.921	0.89	0.835	0.94	1.02	1.02	0.986
ChaGo-K-1	0.493	0.513	0.497	0.508	0.488	0.55	0.533	0.54	0.958	1.05	0.881	0.986	0.888	0.99	0.785	0.946	–	–	–	–
EBC-1	–	–	–	–	–	–	–	–	0.422	0.501	0.422	0.339	0.104	0.103	0.112	0.102	0.208	0.212	0.217	0.222
EKVX	0.372	0.36	0.349	0.288	0.312	0.312	0.353	0.349	1.05	1.03	0.957	0.384	0.824	0.76	0.702	0.78	0.214	0.127	0.242	0.212
EMC-BAC-2	1	0.941	0.913	0.955	0.922	0.933	0.897	0.818	1.19	1.08	1.15	1.05	0.961	0.828	0.822	0.708	0.869	0.828	0.872	0.885
EPLC-272H	0.444	0.315	0.342	0.312	0.35	0.332	0.356	0.345	1.13	1.05	0.983	0.871	0.822	–	0.653	0.606	0.918	0.867	0.75	0.855
H3255	0.617	0.504	0.609	0.472	0.6	0.557	0.615	0.524	0.398	0.441	0.466	0.259	0.894	0.793	0.833	0.959	0.35	0.282	0.259	0.22
HARA	0.609	0.699	0.612	0.381	0.584	0.528	0.539	0.591	1.14	1.24	1.14	1	0.904	0.887	0.91	0.891	0.641	0.665	0.522	1.01
